Data taken from patent US20240148762A1, “TOPICAL COMPOSITION CONTAINING CANNABINOIDS” (TF Holdings LLC, priority 2022, published 2024).

Assay: MTT assay of viability and metabolic activity of ex vivo human skin explants after topical application
Format: cell-based
Settings: ex vivo human skin explants (5 mm); ex vivo human skin 5 mm explants, 48 hours post treatment, 37° C., compared to the untreated skin control, n=3
Method: Sample 1 was tested to determine its toxicity and metabolic properties in comparison to a control and three commercial cleaning agents (irritants)— “SDS” (sodium dodecyl sulfate), Triton™ X-100, and Tween® 20. Human skin was obtained via post-surgical elective surgery under IRB protocol and prepared within 2 hours of surgery as 5 mm explants. The compositions were applied to the surface of the epidermis and incubated for 24 hours and 48 hours at 37° C. At each time point, explants were assessed for viability and metabolic activity via a MTT assay (n=3; mean+/−SEM), a colorimetric assay for assessing cell metabolic activity. […] The metabolic activity (viability) of tissues treated with Sample 1 remained above 50% at 48 hours post treatment compared to the untreated skin control, while those treated with Trition ° X-100 and SDS were <10% and are illustrated in the graph below that plots percent viability and time.

SMILES: CCCCCCCCCCCCOS(=O)(=O)[O-].[Na+] [SDS, sodium dodecyl sulfate]
- viability at 48 h: < 10%
